Patent publication US20240010620A1, “ARYLAZABICYCLO[2.1.1]HEXYLMETHANOLS DERIVATIVES AND MEDICAL USES THEREOF” (ATROGI AB, priority 2020, published 2024)

Key:
L6-myotubes [1] = test: Measurement of intracellular cAMP levels (alpha screen cAMP kit); type: cell-based; conditions: differentiated cells; agonist final concentration 1×10^−5, 15 min; 1 mM IBMX
Procedure: L6-myoblasts were grown in Dulbecco's Modified Eagle's Medium (DMEM) containing 4,5 g/I glucose supplemented with 10% fetal bovine serum, 2 mM L-Glutamine, 50 U/ml penicillin, 50 μg/ml streptomycin and 10 mM HEPES. Cells were plated at 1×10^5 cells per ml in 24-well plates. After reaching 90% confluence the cells were grown in medium containing 2% FBS for 7 days where upon cells differentiated into myotubes. Differentiated cells were serum-starved over night and stimulated with agonist, final concentration 1×10^−5, for 15 min in stimulation buffer (HBSS supplemented with 1% BSA, 5 mM HEPES and 1 mM IBMX, pH 7.4) The medium was then aspirated and to end the reaction 100 μL of 95% EtOH was added to each well of a 24-well plate and cells were kept in −20° C. over night. The EtOH was let to evaporate and 500 μL of lysis buffer (1% BSA, 5 mM HEPES and 0.3% Tween-20, pH 7.4) was added to each well before put in −80° C. for 30 min and then kept in −20° C. Intracellular cAMP levels were detected using an alpha screen cAMP kit (6760635D from Perkin Elmer). The activity for each compound is compared to that of isoproterenol.

L6-myotubes [2] = test: Glucose uptake in differentiated L6-myotubes (3H-2-deoxy-glucose); type: cell-based; conditions: agonist final concentration 1×10^−5, 3H-2-deoxy-glucose uptake
Procedure: L6-myoblasts were grown in Dulbecco's Modified Eagle's Medium (DMEM) containing 4,5 g/I glucose supplemented with 10% fetal bovine serum, 2 mM L-Glutamine, 50 U/ml penicillin, 50 μg/ml streptomycin and 10 mM HEPES. Cells were plated at 1×10^5 cells per ml in 24-well plates. After reaching 90% confluence the cells were grown in medium containing 2% FBS for 7 days where upon cells differentiated into myotubes. Differentiated L6-myotubes were serum-starved over night in medium containing 0.5% fatty-acid free BSA and stimulated with agonist, final concentration 1×10^−5. After 1 h 40 min cells were washed with warm, glucose free medium or PBS and another portion of agonist was added to glucose free medium. After 20 min the cells were exposed to 50 nM ^3H-2-deoxy-glucose for another 10 min before washed in ice cold glucose free medium or PBS and lysed in 0.2 M NaOH for 1 h in 60° C.

Row | Structure (SMILES) | Biological example 2: intracellular cAMP levels, activity compared to that of isoproterenol (L6-myotubes [1]) | Biological example 1: glucose uptake, activity compared to that of isoproterenol (L6-myotubes [2])
1 | CC12CC(C1)[C@@H]([C@H](O)c1ccccc1F)N2.Cl [Example 12, (R)-(2-Fluorophenyl)((S)-1-methyl-2-azabicyclo[2.1.1]hexan-3-yl)methanol hydrochloride] | − (less than 25%) | +++ (activity of more than 75% of that of isoproterenol)
2 | CC12CC(C1)[C@H]([C@H](O)c1cccc(Cl)c1)N2.Cl [Example 5, (R)-(3-Chlorophenyl)((R)-1-methyl-2-azabicyclo[2.1.1]hexan-3-yl)methanol hydrochloride] | − (less than 25%) | +++ (activity of more than 75% of that of isoproterenol)
3 | CC12CC(C1)[C@@H]([C@@H](O)c1cccc(N)c1F)N2.Cl [Example 18, (S)-(3-Amino-2-fluorophenyl)((S)-1-methyl-2-azabicyclo[2.1.1]hexan-3-yl)methanol hydrochloride] | − (less than 25%) | ++ (between 75 and 50%)
4 | CC12CC(C1)[C@@H]([C@H](O)c1cccc(F)c1)N2.Cl [Example 4, (R)-(3-Fluorophenyl)((S)-1-methyl-2-azabicyclo[2.1.1]hexan-3-yl)methanol hydrochloride] | − (less than 25%) | − (less than 25%)
5 | CC12CC(C1)[C@H]([C@@H](O)c1cccc(N)c1F)N2.Cl [Example 19, (S)-(3-Amino-2-fluorophenyl)((R)-1-methyl-2-azabicyclo[2.1.1]hexan-3-yl)methanol hydrochloride] | − (less than 25%) | ++ (between 75 and 50%)
6 | CC12CC(C1)[C@@H]([C@@H](O)c1cncc(F)c1)N2 [Example 14, (S)-(5-Fluoropyridin-3-yl)((S)-1-methyl-2-azabicyclo[2.1.1]hexan-3-yl)-methanol] | − (less than 25%) | ++ (between 75 and 50%)
7 | CC12CC(C1)[C@@H]([C@H](O)c1cccc(N)c1F)N2.Cl [Example 20, (R)-(3-Amino-2-fluorophenyl)((S)-1-methyl-2-azabicyclo[2.1.1]hexan-3-yl)methanol hydrochloride] | − (less than 25%) | ++ (between 75 and 50%)
8 | CC12CC(C1)[C@H]([C@H](O)c1ccccc1F)N2.Cl [Example 9, (R)-(2-Fluorophenyl)((R)-1-methyl-2-azabicyclo[2.1.1]hexan-3-yl)methanol hydrochloride] | +++ (activity of more than 75% of that of isoproterenol) | +++ (activity of more than 75% of that of isoproterenol)
9 | CC12CC(C1)[C@H]([C@H](O)c1cncc(F)c1)N2 [Example 13, (R)-(5-Fluoropyridin-3-yl)((R)-1-methyl-2-azabicyclo[2.1.1]hexan-3-yl)-methanol] | − (less than 25%) | +++ (activity of more than 75% of that of isoproterenol)
10 | CC12CC(C1)[C@@H]([C@@H](O)c1ccccc1F)N2.Cl [Example 10, (S)-(2-Fluorophenyl)((S)-1-methyl-2-azabicyclo[2.1.1]hexan-3-yl)methanol hydrochloride] | − (less than 25%) | +++ (activity of more than 75% of that of isoproterenol)
